In patent publication US7816350B2, “Substituted [1,2,3] triazolo[4,5-D]pyrimidines as cdk inhibitors” (Institute of Experimental Botany ASCR, priority 2002, dated 2010):
Several values for one entry are separate records, joined by “and”; a condition that tells them apart may be missing. Identical values can stand only once.

What was measured:
K-562 = assay: In vitro cytotoxic activity, MTT assay, K-562; type: cell-based; details: Homo sapiens, K562, 72 hours
p34^cdc2/cyclin B (CDC2) = target: T1, p34^cdc2/cyclin B (CDC2) (Homo sapiens, UniProt P06493); assay: CDK inhibition assay, p34cdc2/cyclin B kinase, histone H1 phosphorylation; type: biochemical
T1 construct: made in house; host or cells: Sf9 insect cells (baculovirus co-infection)
T1 sequence (P06493 whole entry, species assumed): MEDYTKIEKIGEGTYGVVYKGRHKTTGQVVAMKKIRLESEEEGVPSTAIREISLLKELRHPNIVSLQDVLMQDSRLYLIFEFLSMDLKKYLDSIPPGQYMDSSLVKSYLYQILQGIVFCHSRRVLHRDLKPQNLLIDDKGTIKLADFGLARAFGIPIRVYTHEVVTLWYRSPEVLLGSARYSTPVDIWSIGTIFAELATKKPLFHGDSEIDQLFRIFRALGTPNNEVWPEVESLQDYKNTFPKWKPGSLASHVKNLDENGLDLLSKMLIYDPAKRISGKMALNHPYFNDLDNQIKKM
T1 sequence (P14635 whole entry partner, species assumed): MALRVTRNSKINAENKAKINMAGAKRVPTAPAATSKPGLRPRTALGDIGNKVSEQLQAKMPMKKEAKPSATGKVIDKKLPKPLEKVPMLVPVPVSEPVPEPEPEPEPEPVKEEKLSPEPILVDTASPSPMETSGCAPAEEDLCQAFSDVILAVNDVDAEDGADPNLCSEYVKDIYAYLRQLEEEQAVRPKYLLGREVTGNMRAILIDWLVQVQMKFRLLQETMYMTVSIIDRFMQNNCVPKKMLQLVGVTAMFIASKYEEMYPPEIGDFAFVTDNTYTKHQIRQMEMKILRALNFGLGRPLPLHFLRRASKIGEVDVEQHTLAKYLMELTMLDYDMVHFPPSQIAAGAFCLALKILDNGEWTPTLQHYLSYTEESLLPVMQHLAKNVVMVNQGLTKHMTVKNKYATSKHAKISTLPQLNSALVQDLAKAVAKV
Description: (§1) Cyclin-dependent kinases (p34^cdc2, p33^cdk2) and cyclins (cyclin B, E) are produced in Sf9 insect cells coinfected with appropriate baculoviral constructs. The cells are harvested 68-72 hrs post infection in lysis buffer for 30 min on ice and the soluble fraction is recovered by centrifugation at 14.000 g for 10 min. The protein extract is stored at −80° C.
(§2) Lysis buffer: 50 mM Tris pH 7.4, 150 mM NaCl, 5 mM EDTA, 20 mM NaF, 1% Tween, 1 mM DTT, 0.1 mM PMSF, leupeptine, aprotonine.
(§3) To carry out experiments on kinetics under linear conditions, the final point test system for kinase activity measurement is used. The kinase is added to reaction mixture in such a way as to obtain linear activity with respect to the concentration of enzyme and with respect to time.
(§4) The p34^cdc2 and p33^cdk2 kinase inhibition determination involves the use of 1 mg/ml histone H1 (Sigma, type III-S) in the presence of 15 μM [γ-^32P]ATP ([…]) (Amersham) in a final volume of 20 μl. Kinase activity is determined at 30° C. in the kinase buffer.
(§5) Tested compounds are usually dissolved to 100 mM solutions in DMSO, final concentration of DMSO in reaction mixture never exceeds 1%. The controls contain suitable dilutions of DMSO.
(§6) After 10 min, addition 3×SDS sample buffer stops the incubations. Phosphorylated proteins are separated electrophoretically using 12.5% SDS polyacrylamide gel. The measurement of kinase activity is done using digital image analysis.
(§7) The kinase activity is expressed as a percentage of maximum activity, the apparent inhibition constants are determined by graphic analysis (FIG. 1).
(§8) Kinase buffer: 50 mM Hepes pH 7.4, 10 mM MgCl2, 5 mM EGTA, 10 mM 2-glycerolphosphate, 1 mM NaF, 1 mM DTT

MCF7 = assay: In vitro cytotoxic activity, MTT assay, MCF7; type: cell-based; details: Homo sapiens, 72 hours
Excerpt: One of the parameters used, as the basis for colorimetric assays is the metabolic activity of viable cells. For example, a microtiter assay, which uses the tetrazolium salt MTT, is now widely used to quantitate cell proliferation and cytotoxicity. For instance, this assay is used in drug screening programs and in chemosensitivity testing. Because only metabolically active cells cleave tetrazolium salts, these assays detect viable cells exclusively. In the case of MTT assay, yellow soluble tetrazolium salt is reduced to coloured water-insoluble formazan salt. After it is solubilized, the formazan formed can easily and rapidly be quantified in a conventional ELISA plate reader at 570 nm (maximum absorbance). The quantity of reduced formazan corresponds to number of vital cells in the culture.
Human T-lymphoblastic leukemia cell line CEM; promyelocytic HL-60 and monocytic U937 leukemias; breast carcinoma cell lines MCF-7, BT549, MDA-MB-231; glioblastoma U87MG cells; cervical carcinoma cells HELA; sarcoma cells U2OS and Saos2; hepatocellular carcinoma HepG2; mouse immortalized bone marrow macrophages B2.4 and B10A.4; P388D1 and L1210 leukemia; B16 and B16F10 melanomas were used for routine screening of compounds. The cells were maintained in Nunc/Corning 80 cm^2 plastic tissue culture flasks and cultured in cell culture medium (DMEM with 5 g/l glucose, 2 mM glutamine, 100 U/ml penicillin, 100 μg/ml streptomycin, 10% fetal calf serum and sodium bicarbonate).
The cell suspensions that were prepared and diluted according to the particular cell type and the expected target cell density (2.500-30.000 cells per well based on cell growth characteristics) were added by pipette (80 μl) into 96/well microtiter plates. Inoculates were allowed a pre-incubation period of 24 hours at 37° C. and 5% CO2 for stabilisation. Four-fold dilutions of the intended test concentration were added at time zero in 20 μl aliquots to the microtiter plate wells. Usually, test compound was evaluated at six 4-fold dilutions. In routine testing, the highest well concentration was 266.7 μM, but it can be the matter of change dependent on the agent. All drug concentrations were examined in duplicates. Incubations of cells with the test compounds lasted for 72 hours at 37° C., in 5% CO2 atmosphere and 100% humidity. At the end of incubation period, the cells were assayed by using the MTT. Ten microliters of the MTT stock solution were pipetted into each well and incubated further for 1-4 hours. After this incubation period, formazan was solubilized by addition of 100 μl/well of 10% SDS in water (pH=5.5) followed by further incubation at 37° C. overnight. The optical density (OD) was measured at 540 nm with the Labsystem iEMS Reader MF (UK). The tumour cell survival (TCS) was calculated using the following equation: TCS=(ODdrug exposed well/mean ODcontrol wells)×100%. The IC50 value, the drug concentration lethal to 50% of the tumour cells, was calculated from the obtained dose response curves (FIG. 2).

IκB-α kinase = IκB-α kinase inhibitory activity, in vitro kinase assay; type: biochemical
p33^cdk2 (cyclin E) = target: T2, p33^cdk2 (cyclin E) (Homo sapiens, UniProt P24941); assay: CDK inhibition assay, p33cdk2 kinase, histone H1 phosphorylation; type: biochemical
T2 construct: made in house; host or cells: Sf9 insect cells (baculovirus co-infection)
Description: as §1, §2, §3, §4, §5, §6, §7, §8

CDK9 - cyclin T1 = CDK9 - cyclin T1 (Homo sapiens, UniProt P50750); assay: CDK inhibitory activity, CDK9 - cyclin T1; type: biochemical
CDK9 - cyclin T1, sequence (P50750 whole entry): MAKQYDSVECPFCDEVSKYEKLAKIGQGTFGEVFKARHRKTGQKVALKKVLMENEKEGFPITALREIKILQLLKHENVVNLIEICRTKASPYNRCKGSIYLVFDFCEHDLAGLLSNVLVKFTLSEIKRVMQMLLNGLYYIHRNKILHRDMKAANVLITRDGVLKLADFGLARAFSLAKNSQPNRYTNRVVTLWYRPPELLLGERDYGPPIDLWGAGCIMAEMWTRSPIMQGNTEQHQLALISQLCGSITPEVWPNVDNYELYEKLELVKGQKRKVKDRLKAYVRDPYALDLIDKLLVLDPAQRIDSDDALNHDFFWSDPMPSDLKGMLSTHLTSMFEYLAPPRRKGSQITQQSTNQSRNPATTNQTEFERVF
CDK9 - cyclin T1, sequence (O60563 whole entry partner): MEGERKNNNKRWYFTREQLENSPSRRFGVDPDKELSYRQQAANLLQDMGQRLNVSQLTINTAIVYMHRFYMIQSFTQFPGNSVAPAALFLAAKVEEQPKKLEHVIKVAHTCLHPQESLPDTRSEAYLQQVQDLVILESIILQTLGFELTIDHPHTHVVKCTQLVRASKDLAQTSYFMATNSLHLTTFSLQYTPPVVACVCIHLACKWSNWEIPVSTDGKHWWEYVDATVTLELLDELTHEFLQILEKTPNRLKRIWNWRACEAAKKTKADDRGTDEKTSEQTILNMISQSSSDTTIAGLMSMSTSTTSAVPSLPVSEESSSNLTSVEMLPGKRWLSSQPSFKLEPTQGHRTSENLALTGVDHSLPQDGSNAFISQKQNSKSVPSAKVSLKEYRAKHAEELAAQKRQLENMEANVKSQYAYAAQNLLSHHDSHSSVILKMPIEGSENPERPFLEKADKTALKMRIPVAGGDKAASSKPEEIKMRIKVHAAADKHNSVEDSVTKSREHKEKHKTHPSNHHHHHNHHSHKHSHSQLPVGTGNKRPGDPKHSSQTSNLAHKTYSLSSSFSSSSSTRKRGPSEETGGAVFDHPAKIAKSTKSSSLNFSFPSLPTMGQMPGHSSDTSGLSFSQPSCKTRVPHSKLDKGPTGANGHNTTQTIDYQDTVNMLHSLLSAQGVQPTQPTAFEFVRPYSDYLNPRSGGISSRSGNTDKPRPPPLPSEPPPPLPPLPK

SMILES | IC50 (K-562) | IC50 (p34^cdc2/cyclin B (CDC2)) | IC50 (MCF7) | IC50 (IκB-α kinase) | IC50 (p33^cdk2 (cyclin E)) | IC50 (CDK9 - cyclin T1)
CC(=O)c1ccccc1CNc1nc(N[C@@H](CO)C(C)C)nc2c1nnn2C(C)C | 34.9 µM | 25 µM | 40.8 µM | > 100 µM |  | 
CC(C)[C@H](CO)Nc1nc(NCc2cccc(O)c2)c2nnn(C(C)C)c2n1 | 17.5 µM | 8 µM | 18 µM | 80 µM |  | 
CC(C)[C@H](CO)Nc1nc(Nc2ccc(N)c(Cl)c2)c2nnn(C(C)C)c2n1 | 28.9 µM | 40 µM | 22.5 µM | > 100 µM |  | 
CC(C)n1nnc2c(Nc3cccc(Cl)c3)nc(NCCCO)nc21 | > 100 µM |  | > 100 µM | > 100 µM |  | 
COc1ccc(CNc2nc(NC3CCCCC3N)nc3c2nnn3C(C)C)cc1O (stereo not shown) |  |  |  |  | 7 µM | 1.7 µM
CC(C)[C@H](CO)Nc1nc(Nc2cccc(Cl)c2)c2nnn(C(C)C)c2n1 | 96 µM | 20 µM | 80 µM | 80 µM |  | 
CC(C)n1nnc2c(Nc3cccc(Cl)c3)nc(N(CCO)CCO)nc21 | > 100 µM | 35 µM | 100 µM | > 100 µM |  | 
CC(C)n1nnc2c(Nc3cccc(Cl)c3)nc(NCCN)nc21 | > 100 µM | > 100 µM | 100 µM | > 100 µM |  | 
CC(C)n1nnc2c(Nc3cccc(Cl)c3)nc(NC3CCCCC3N)nc21 (stereo not shown) | 12.2 µM | 7 µM | 8.9 µM | > 100 µM |  | 
CC(=O)c1cccc(CNc2nc(N[C@@H](CO)C(C)C)nc3c2nnn3C(C)C)c1 | 50.6 µM | 40 µM | 47.6 µM | > 100 µM |  | 
CC(C)n1nnc2c(NCc3ccc(O)cc3)nc(NC3CCC(N)CC3)nc21 (stereo not shown) |  |  |  |  | > 10 µM | 1.4 µM
CC(C)C(CO)Nc1nc(NCc2ccccc2O)c2nnn(C(C)C)c2n1 (stereo not shown) |  |  |  |  | 6.9 µM | 2.5 µM
CC(C)[C@H](CO)Nc1nc(Nc2ccc(Cl)cc2)c2nnn(C(C)C)c2n1 | 19.4 µM | 35 µM | 17.6 µM | 90 µM |  | 
CC(C)n1nnc2c(Nc3cccc(Cl)c3)nc(NCCCN)nc21 | > 100 µM | > 100 µM | 100 µM | > 100 µM |  | 
OC1CCC(Nc2nc(Nc3cccc(Cl)c3)c3nn[nH]c3n2)CC1 (stereo not shown) |  |  |  |  | 0.1 µM | 8 µM
CC[C@H](CO)Nc1nc(NCc2ccccc2)c2nnn(C(C)C)c2n1 |  |  |  |  | 23.2 µM | 11.5 µM
CC[C@H](CO)Nc1nc(Nc2cccc(Cl)c2)c2nnn(C(C)C)c2n1 | > 100 µM | 35 µM | > 100 µM | > 100 µM and 80 µM |  | 
CC(C)n1nnc2c(Nc3cccc(Cl)c3)nc(NCCO)nc21 | > 100 µM |  | > 100 µM | > 100 µM |  | 
CC(C)[C@H](CO)Nc1nc(Nc2ccc(Br)cc2)c2nnn(C(C)C)c2n1 | 75 µM | 35 µM | 64 µM | > 100 µM |  | 
CC(C)[C@H](CO)Nc1nc(Nc2ccc(O)c(C(=O)O)c2)c2nnn(C(C)C)c2n1 | 28 µM | 34 µM | 24 µM | > 100 µM |  | 
CC(C)[C@H](CO)Nc1nc(Nc2ccc(Cl)c(C(=O)O)c2)c2nnn(C(C)C)c2n1 | 42 µM | 30 µM | 21 µM | 80 µM |  | 
CC(C)n1nnc2c(NCc3ccccc3O)nc(NC3CCC(O)CC3)nc21 (stereo not shown) |  |  |  |  | > 10 µM | 9.9 µM
CC(C)n1nnc2c(NCc3cccc(O)c3)nc(NC3CCC(N)CC3)nc21 (stereo not shown) |  |  |  |  | > 10 µM | 1.7 µM
